The values that follow come from paper PMC5059467, “Anti-tubulin drugs conjugated to anti-ErbB antibodies selectively radiosensitize” (Nature Communications, 2016).

The term IC50 denotes the concentration that inhibits the measured activity by half.

Square brackets hold non-standard residues; d marks the D form. Peptide text beside a SMILES is read from it. * marks the point of attachment. Dolaproine = CO[C@@H]([C@@H]1CCCN1)[C@@H](C)C(=O)O; Dil = CC[C@H](C)[C@H](NC)[C@@H](CC(=O)O)OC; X1 = C[C@@H](N*)[C@@H](O)c1ccccc1; NMeV = CN[C@H](C(=O)O)C(C)C

One data set concerns CALU3 cells. Put plainly: Neutral comet assay after IR, CALU3 cells. It counts as cell-based, human. The conditions noted are these: 2 nM overnight, 6 Gy, compared with vehicle or 20 nM antibody. The procedure: (§1) Cells were collected 15 min post IR, suspended in agarose gel and lysed per assay directions (Trevigen). Samples underwent electrophoresis under neutral conditions and were then stained with Sybr Green. Comet tails were counted in multiple fields (>60 cells per sample) and analysed using CometScore (TriTek Corp). Comet tail length was normalized to vehicle-treated, non-irradiated cells.

Data set [1] has as its system OE19 cells. The data set is described as follows: Cell cycle profile (propidium iodide, flow cytometry), OE19 cells. The conditions noted are these: overnight treatment. It is filed as cell-based, human. The procedure: (§2) Cells were treated with RNAse, stained with propidium iodide (PI) and analysed by FACS using FloJo software.
For orientation: In flow cytometry, cells or beads pass a laser one at a time.

A further data set concerns CAL-27 tumour xenografts. Put plainly: CAL-27 tumour xenograft growth with or without IR. It is filed as in vivo, mice. The conditions noted are these: Fig 4f, 0.5 nmol cetuximab or C-MMAE, 2 nmol free MMAE on day 0. The procedure:
(§3) CAL-27, OE19, NCI N87 and HCT116 tumour xenografts were established and tumour growth was measured with digital calipers. Tumour volume was measured blindly to treatment group and calculated using the formula as ½ × length × width^2. Mice were randomized into groups once the average tumour volume reached >100 mm^3. Mice were assigned to indicated groups in ‘Results'. […] For irradiated mice, the tumour-bearing hindlimbs were focally irradiated while the remainder of the mouse was shielded from IR with custom designed lead blocking >95% of the dose as verified by dosimeters placed on the mouse. […] To prevent unnecessary morbidity, mice were killed if tumour length exceeded 15 mm per protocol. Nonlinear regression least squares fit was used to calculate tumour volume doubling times. […] To minimize the number of mice used, tumours were grown in the bilateral flanks.

On the set-up of data set [2]: method as in PMID 25681274. To be noted: cited from earlier work.
The subject of data set [3] is CAL-27 cells. Put plainly: Cell cycle profile (propidium iodide, flow cytometry), CAL-27 cells. It is filed as cell-based, human. To be noted: overnight treatment. The procedure:
as §2

Data set [4] concerns CAL-27 cells. Put plainly: Clonogenic cell survival (SF2), CAL-27 cells. It counts as cell-based, human. To be noted: compared with vehicle. The procedure:
Following IR, cells were counted, re-plated at varying cell numbers in drug-free media. […] Surviving fraction at 2 Gy (SF2) was calculated as the fraction of cells surviving 2 Gy compared with non-irradiated cells.

Data set [5] concerns OE19 cells. Put plainly: Neutral comet assay after IR, OE19 cells. It is filed as cell-based, human. The procedure:
as §1

For data set [6], the system named is cell lines irrespective of HER2 expression. The data set is described as follows: Alamar blue cell viability, cell lines irrespective of HER2 expression. It counts as cell-based, human. The conditions noted are these: fairly consistent across cell lines irrespective of HER2 expression; 72–96 h. In general terms: Alamar Blue is a resazurin reagent that responds to reducing activity.

Data set [7] concerns HCT116 cells. The data set is described as follows: Clonogenic cell survival (SF2), HCT116 cells. To be noted: 5 nM overnight then 2 Gy, compared with vehicle. It is filed as cell-based, human. The procedure: Following IR, cells were counted, re-plated at varying cell numbers in drug-free media. 10–14 days after initial seeding formed colonies were methanol fixed, stained with crystal violet and counted. Surviving fraction at 2 Gy (SF2) was calculated as the fraction of cells surviving 2 Gy compared with non-irradiated cells.

The test system of data set [8] is HCT116 cells. Put plainly: Cell cycle profile (propidium iodide, flow cytometry), HCT116 cells. It counts as cell-based, human. The conditions noted are these: overnight treatment. The procedure:
as §2

Data set [9] concerns HER2+ and HER2− cell lines. Put plainly: Neutral comet assay after IR, HER2+ and HER2− cell lines. To be noted: 20 nM overnight, 2 Gy. It counts as cell-based, human. The procedure: as §1
Data set [10] concerns CAL-27 cells. The procedure:
(§4) Alamar Blue (resazurin) was added to the cells and allowed to incubate for 2–4 h at 37 °C. Plates were analysed using a plate reader with fluorescence measured at 560 nm.

Data set [11] deals with OE19 cells. Put plainly: Alamar blue cell viability, OE19 cells. It counts as cell-based, human. The conditions noted are these: HER2+ OE19; 72–96 h.
The test system of data set [12] is NCI N87 tumour xenografts. The data set is described as follows: NCI N87 tumour xenograft growth with or without IR. It counts as in vivo, mice. To be noted: for Tumour doubling time in days (mean, 95% CI): NCI N87 (HER2+). The procedure:
as §3

In data set [13] the test system is HCT116 cells. The conditions noted are these: read-out: IC50 (cell viability); HER2- HCT116; 72–96 h. The procedure: as §4
The next data set concerns NCI N87 cells. The conditions noted are these: read-out: IC50 (cell viability); HER2+ NCI N87 (gastric cancer); 72–96 h. The procedure: as §4
A further data set has as its system OE19 tumours. The data set is described as follows: Immunohistochemistry of OE19 tumour xenografts (pS10 Histone H3, cleaved caspase 3). It is filed as in vivo, mice. To be noted: tumours harvested 48 h after drug.
A further data set has as its system OE19 tumour xenografts. Put plainly: OE19 tumour xenograft growth with or without IR. To be noted: for Tumour doubling time in days (mean, 95% CI): OE19 (HER2+). It counts as in vivo, mice. The procedure:
as §3

For a further data set, the system named is HCT116 tumour xenografts. The data set is described as follows: HCT116 tumour xenograft growth with or without IR. It counts as in vivo, mice. The conditions noted are these: for Tumour doubling time in days (mean, 95% CI): HCT116 (HER2−). The procedure: as §3
[14] abbreviates: 0.25 nmol (∼1.9 mg kg^−1) day 0, 2.5 Gy days 1, 2 and 3.
[15] abbreviates: 0.25 nmol T-DM1 i.v. day 0, +IR 2.5 Gy on days 1, 2 and 3, extrapolated.

Method for OE19 tumours: Tissue sections were cut from blocks of formalin-fixed paraffin embedded xenografts. Four micron thick tissue sections were stained with antibodies to phospho-histone H3 (pH3, Abcam, catalogue number ab32107) and cleaved caspase-3 (ClC3, Cell Signaling Technology, catalogue number 9661) and used at dilutions of 1:300 and 1:900, respectively. Slides were stained on a Ventana Discovery Ultra (Ventana Medical Systems, Tucson, AZ, USA). Antigen retrieval was performed using CC1 for 24–40 min at 95 °C. The primary antibodies were incubated on the sections for 1 h at 37 °C. Primary antibodies were visualized used DAB as a chromagen using the UltraMap system (Ventana Medical systems) followed by hematoxylin as a counterstain. Slides were rinsed, dehydrated through alcohol and xylene and coverslipped.
Immunostained slides were scanned using an Axio Scan.Z1 (Zeiss; Oberkochen, Germany). […] Whole-slide images were imported into Definiens Software for quantitative analysis (Definiens; Munich, Germany). […] For analysis of pH3 (a nuclear stain), the total number of nuclei and the total number of nuclei showing DAB staining (pH3 positive cells) were recorded within each ROI. The percent of positive nuclei was then calculated for each sample. For analysis of ClC3 (a cytoplasmic stain), mean DAB chromagen intensity was measured and calculated within the ROI for each sample.

For `CC[C@H](C)[C@@H]([C@@H](CC(=O)N1CCC[C@H]1[C@H](OC)[C@@H](C)C(=O)N[C@H](C)[C@@H](O)c1ccccc1)OC)N(C)C(=O)[C@@H](NC(=O)[C@@H](NC)C(C)C)C(C)C` [MMAE, monomethyl auristatin E] (H-[NMeV]V[Dil][Dolaproine]-X1), the “effect on IR induced comet tail length” value in the data set on CALU3 cells is “increased comet tail length to a similar degree”; in the data set with OE19 cells [5] (2 nM overnight, 6 Gy, compared with vehicle, 20 nM antibody or 2 nM C-MMAE) it was “further increased comet tail length”. The “cell cycle profile (G2/M)” value in the data set with OE19 cells [1] and in the data set with CAL-27 cells [3] was “accumulating in G2/M” each time. In the data set on CAL-27 tumour xenografts (day 35, + IR 3 Gy on days 1 and 2), the “Mean Diff. Control vs. treatment + IR (Tukey's multiple comparisons, tumour volume)” value amounted to 246.7. Moreover, the “Mean Diff. Control vs. treatment (Tukey's multiple comparisons, tumour volume)” value in the data set on CAL-27 tumour xenografts (day 35, no IR) came to 272. For the same molecule, the “concentration level effective as radiosensitizer” value in [2] is listed as “single nM level”. Further, in the data set on CAL-27 cells [4] (drug overnight then 2 Gy), the “surviving fraction following 2 Gy (SF2)” value was “decreased”.

`COc1cc2cc(c1Cl)N(C)C(=O)C[C@H](OC(=O)[C@H](C)N(C)C(=O)CCS)[C@]1(C)O[C@H]1[C@H](C)[C@@H]1C[C@@](O)(NC(=O)O1)[C@H](OC)/C=C/C=C(\C)C2` [mertansine]: the IC50 in data set [6] was roughly 10 nM. Besides, the “cell cycle profile (G2/M)” value in the data set on OE19 cells [1] and in the data set on HCT116 cells [8] was “increased the accumulation” in each case. The “surviving fraction following 2 Gy (SF2)” value with HCT116 cells [7] and in the data set on CAL-27 cells [4] (5 nM mertansine overnight then 2 Gy) was “decreased further” each time. In addition, the “radiosensitization (IR induced DNA double-strand breaks, comet tail length)” value in data set [9] is “radiosensitized by increasing IR induced DNA double-strand breaks in both HER2+ and HER2− cell lines”.

`CC(=O)O[C@H]1C(=O)[C@@]2(C)[C@H]([C@H](OC(=O)c3ccccc3)[C@]3(O)C[C@H](OC(=O)[C@H](O)[C@@H](NC(=O)c4ccccc4)c4ccccc4)C(C)=C1C3(C)C)[C@]1(OC(C)=O)CO[C@@H]1C[C@@H]2O` [paclitaxel]: the “cytotoxic potency, paclitaxel compared with T-DM1” value in the data set on CAL-27 cells [10] (HER2- CAL-27 cells, 96 hours) is “more potent than T-DM1”.

Regarding ado-trastuzumab emtansine [T-DM1], the IC50 in the data set with OE19 cells [11] was less than 1 nM; in the data set on HCT116 cells [13], greater than 100 nM; in the data set on CAL-27 cells [10] (read-out: IC50 (cell viability), HER2- CAL-27, 72–96 h), greater than 100 nM; in the data set on NCI N87 cells, less than 1 nM. In addition, the results for the “cell cycle profile (G2/M)” value in the data set on OE19 cells [1] and with HCT116 cells [8] were “blocked OE19 cells in G2/M” and “resembled vehicle-treated cells”, respectively. Besides, the “radiosensitization (IR induced DNA double-strand breaks, comet tail length)” value in [9] is listed as “restricted radiosensitization of HER2+ cells”. For the same molecule, the “tumour regression with T-DM1 and IR” value (in data set [12] (setting [14]); in the data set on OE19 tumour xenografts (setting [14])) was “significantly prolonged tumour regression” each time. Further, the “Tumour doubling time in days (mean, 95% CI)” value is 113 (82–179) days in data set [12] (setting [15]); 23 (21–25) days in [12] (0.25 nmol i.v. day 0, no IR); 66 (33+) days with OE19 tumour xenografts (setting [15]); 11 (8–17) days in the data set with OE19 tumour xenografts (0.25 nmol i.v. day 0, no IR); 7 (5–12) days with HCT116 tumour xenografts (0.25 nmol i.v. day 0, +IR 2.5 Gy on days 1, 2 and 3); 3 (2–5) days with HCT116 tumour xenografts (0.25 nmol i.v. day 0, no IR). Moreover, the “cells in G2/M in tumours (pS10 Histone H3 IHC)” value in the data set on OE19 tumours is listed as “increased the number of cells in radiosensitive G2/M phase”. In addition, the “radiosensitization (comet tail length)” value in the data set on OE19 cells [5] (2 nM T-DM1, irradiated OE19 (HER2+)) was “radiosensitized”. For the same molecule, the “slowing of tumour growth compared with control or trastuzumab” value in the data set with OE19 tumour xenografts (single dose of 1 nmol, by day 14) is on record as “equally efficacious in slowing tumour growth”. In the data set on HCT116 tumour xenografts (HER2- HCT116, 0.25 nmol day 0, 2.5 Gy days 1, 2 and 3), the “benefit of adding T-DM1 to IR” value was “no benefit of adding T-DM1 to IR”.
